According to PMC5083757, “Effect of veliparib (ABT-888) on cardiac repolarization in patients with advanced solid tumors: a randomized, placebo-controlled crossover study” (Cancer Chemotherapy and Pharmacology, 2016):
Where two headings read alike, the source gives them in different places. Marks after values point to notes of the source that are not given here.

Key:
[1] = system: patients with BRCA1/2-mutated or wild-type tumors; set-up: method as in earlier work; settings: cited from earlier work
dogs = settings: preclinical studies in dogs; cited from earlier work
[2] = system: patients with advanced solid tumors; assay: Safety: treatment-emergent adverse events; format: in vivo, human; settings: for TEAE: AE leading to discontinuation / TEAE: Abdominal pain / TEAE: Any AE / TEAE: Any fatal AE / TEAE: Any serious AE / TEAE: Back pain / TEAE: Constipation / TEAE: Decreased appetite / TEAE: Dehydration / TEAE: Diarrhea / TEAE: Dizziness / TEAE: Dysgeusia / TEAE: Fatigue / TEAE: Hypomagnesemia / TEAE: Myalgia / TEAE: NCI CTCAE grade 3 or 4 / TEAE: Nausea / TEAE: Neck pain / TEAE: Vomiting: N = 47; for TEAE: At least possibly related to study drug: N = 47, as assessed by investigator; for Deaths: N = 47, includes non-treatment-emergent deaths
Method: Safety was evaluated by AE monitoring, vital signs, physical examination, and laboratory testing throughout the study. Treatment-emergent AEs (TEAEs) were recorded from the time of first dose of study drug until 30 days from the last day of dosing or discontinuation, or until the first dose of study drug for patients enrolling in the NCT02033551 extension study. TEAEs were classified by Medical Dictionary for Regulatory Activities version 17.0 system organ class and preferred term. The severity of AEs was rated according to the National Cancer Institute Common Terminology Criteria for Adverse Events version 4.0. The safety population consisted of all patients’ data.

[3] = system: patients with advanced solid tumors; assay: ECG assessment of QTcF interval, single-dose placebo-controlled crossover study; format: in vivo, human
Text: This was a multicenter phase 1, single-dose, double-blind, placebo-controlled, randomized, 3-period, 6-sequence crossover study (NCT02009631). The primary objective was to evaluate the effect of veliparib on corrected QT interval using Fridericia’s formula (QTcF) in patients with solid tumors. Secondary objectives were to assess the pharmacokinetics, safety, and tolerability of single-dose veliparib.
(§1) Following screening, on the morning of day 1 of each period, eligible patients received a single dose of veliparib 200 mg, veliparib 400 mg, or placebo according to the treatment sequence assigned at randomization, administered orally between 8.00 and 10.00 AM, and approximately 30 min after the start of a low-fat breakfast. Each treatment period lasted 3–7 days, allowing for ≥3 days of drug washout between periods. After study completion, patients were permitted to enter an extension study (NCT02033551) to assess the safety of veliparib as monotherapy or in combination with chemotherapy.
Serial, resting 12-lead ECG measurements were performed at screening, on day 1 of each period at 0 h (pre-dose), and at 0.5, 1, 2, 3, 10, and 24 h post-dose, and at the final study visit on day 3 of period 3. ECGs were performed in triplicate except for a single ECG at screening. All ECG tracings were evaluated using the automated signal analysis algorithm of eECG/ABBIOS to measure predefined ECG intervals (RR, PR, QT, and QRS duration). All ECGs were manually verified and adjudicated by an expert over-reader who was blinded to treatment, time, and patient identification. T- and U-wave morphologies were independently reviewed by a qualified cardiologist who was similarly blinded to treatment, time, and patient identification. QTcF was determined as follows: QTCF=QT/RR3
A linear mixed effects model was used for the analysis of baseline-adjusted QTcF intervals (∆QTcF) for the first 24 h after dosing with either placebo, veliparib 200 mg, or veliparib 400 mg. The primary endpoint was the baseline-adjusted difference in mean QTcF between the veliparib 400 mg dose and placebo (∆∆QTcF) at six post-dose time points. Absence of QTcF effect was established if the 95 % upper confidence bound for the mean ∆∆QTcF between veliparib 400 mg and placebo was below the 10 ms threshold of clinical significance for all post-dose time points, in accordance with ICH E14 guidelines. For the QT/QTc, PR, and QRS interval variables, appropriate cutoff points defining the categories of the largest change from baseline were determined. For QTc, the cutoff points for these categories were as specified in the ICH E14 guidelines. The dataset for ECG evaluations included all available patients’ data.

[4] = system: patients with advanced solid tumors; assay: Exposure-response model (veliparib plasma concentration vs ∆∆QTcF); format: in vivo, human; settings: linear mixed effects model
Method: To establish the nonsignificance of a hysteresis effect, the criteria discussed in Darpo et al. were applied. Subsequently, linear mixed effects models were tested, with or without an additional lagged effect compartment, depending on the outcome of the test for hysteresis. A final model was chosen based on goodness of fit, plausibility of the parameters, and Bayesian information criterion (BIC). The relationship between ∆∆QTcF and veliparib concentration was modeled using the following equation: ΔΔQTcFi,j=ηi(2)+(Slope0+ηi(1))×Concentrationi,j+εi,j for subject i and time point j. η ^(2) represents the inter-subject variability on intercept (fixed effect on intercept is set to zero). Slope0 represents fixed effect on slope. η ^(1) represents the inter-subject variability of the Slope. ε i,j is the residual variability in subject i at time j.

[5] = Pharmacokinetic assessment of veliparib plasma concentrations after a single oral dose; format: in vivo, human; settings: for half-life / AUC(0-inf) / Vd/F / AUC(0-t) / Cmax / Tmax: human, plasma; for Vd/F: read-out: VZ/F
Method: as §1
In each period, blood samples were collected for pharmacokinetic analysis at 0 h (pre-dose), and at 0.5, 1, 2, 3, 10, and 24 h post-dose. Plasma concentrations of veliparib were determined using a validated online solid-phase extraction followed by liquid chromatography with tandem mass spectrometric detection with a lower limit of quantitation for veliparib of 1.05 ng/mL. Veliparib pharmacokinetic parameters were estimated using non-compartmental methods.

[6] = any of the three regimens (200 mg, 400 mg, placebo)
[7] = veliparib 200 mg single oral dose vs placebo
[8] = veliparib 400 mg single oral dose vs placebo
[9] = 200 mg single oral dose, N = 46, mean ± SD
[10] = 400 mg single oral dose, N = 46, mean ± SD
[11] = 200 mg single oral dose, N = 47, mean ± SD

SMILES: C[C@]1(c2nc3c(C(N)=O)cccc3[nH]2)CCCN1 [Veliparib]
- dose-limiting toxicities ([1]; at 400 mg twice daily, in patients with BRCA1/2-mutated and wild-type tumors, respectively): grade 3 nausea/vomiting and grade 2 seizure
- maximum tolerated dose of single-agent veliparib ([1]; phase 1 study, patients with BRCA1/2-mutated or wild-type tumors): 400 mg twice daily
- effect on corrected QT (QTc) interval (dogs): mild but concentration-dependent increase
- TEAE: AE leading to discontinuation ([2]; 200 mg): 0 n (%)
- TEAE: Abdominal pain ([2]; 200 mg): 2 (4.3) n (%)
- TEAE: Any AE ([2]; 200 mg): 17 (36.2) n (%)
- TEAE: Any fatal AE ([2]; 200 mg): 0 n (%)
- TEAE: Any serious AE ([2]; 200 mg): 0 n (%)
- TEAE: Back pain ([2]; 200 mg): 0 n (%)
- TEAE: Constipation ([2]; 200 mg): 0 n (%)
- TEAE: Decreased appetite ([2]; 200 mg): 0 n (%)
- TEAE: Dehydration ([2]; 200 mg): 2 (4.3) n (%)
- TEAE: Diarrhea ([2]; 200 mg): 1 (2.1) n (%)
- TEAE: Dizziness ([2]; 200 mg): 0 n (%)
- TEAE: Dysgeusia ([2]; 200 mg): 0 n (%)
- TEAE: Fatigue ([2]; 200 mg): 2 (4.3) n (%)
- TEAE: Hypomagnesemia ([2]; 200 mg): 0 n (%)
- TEAE: Myalgia ([2]; 200 mg): 4 (8.5) n (%)
- TEAE: NCI CTCAE grade 3 or 4 ([2]; 200 mg): 1 (2.1) n (%)
- TEAE: Nausea ([2]; 200 mg): 6 (12.8) n (%)
- TEAE: Neck pain ([2]; 200 mg): 0 n (%)
- TEAE: Vomiting ([2]; 200 mg): 2 (4.3) n (%)
- TEAE: At least possibly related to study drug ([2]; 200 mg): 7 (14.9) n (%)
- Deaths ([2]; 200 mg): 0 n (%)
- TEAE: AE leading to discontinuation ([2]; 400 mg): 1 (2.1) n (%)
- TEAE: Abdominal pain ([2]; 400 mg): 2 (4.3) n (%)
- TEAE: Any AE ([2]; 400 mg): 23 (48.9) n (%)
- TEAE: Any fatal AE ([2]; 400 mg): 0 n (%)
- TEAE: Any serious AE ([2]; 400 mg): 0 n (%)
- TEAE: Back pain ([2]; 400 mg): 2 (4.3) n (%)
- TEAE: Constipation ([2]; 400 mg): 1 (2.1) n (%)
- TEAE: Decreased appetite ([2]; 400 mg): 1 (2.1) n (%)
- TEAE: Dehydration ([2]; 400 mg): 0 n (%)
- TEAE: Diarrhea ([2]; 400 mg): 3 (6.4) n (%)
- TEAE: Dizziness ([2]; 400 mg): 3 (6.4) n (%)
- TEAE: Dysgeusia ([2]; 400 mg): 2 (4.3) n (%)
- TEAE: Fatigue ([2]; 400 mg): 3 (6.4) n (%)
- TEAE: Hypomagnesemia ([2]; 400 mg): 0 n (%)
- TEAE: Myalgia ([2]; 400 mg): 1 (2.1) n (%)
- TEAE: NCI CTCAE grade 3 or 4 ([2]; 400 mg): 1 (2.1) n (%)
- TEAE: Nausea ([2]; 400 mg): 4 (8.5) n (%)
- TEAE: Neck pain ([2]; 400 mg): 2 (4.3) n (%)
- TEAE: Vomiting ([2]; 400 mg): 4 (8.5) n (%)
- TEAE: At least possibly related to study drug ([2]; 400 mg): 11 (23.4) n (%)
- Deaths ([2]; 400 mg): 0 n (%)
- TEAE myalgia ([2]; veliparib 200 mg): 8.5%
- TEAE nausea ([2]; veliparib 200 mg): 12.8%
- patients experiencing treatment-emergent adverse events ([2]; veliparib 200 mg): 36.2%
- TEAE diarrhea ([2]; veliparib 400 mg): 6.4%
- TEAE dizziness ([2]; veliparib 400 mg): 6.4%
- TEAE fatigue ([2]; veliparib 400 mg): 6.4%
- TEAE nausea ([2]; veliparib 400 mg): 8.5%
- TEAE vomiting ([2]; veliparib 400 mg): 8.5%
- patients experiencing treatment-emergent adverse events ([2]; veliparib 400 mg): 48.9%
- patients with QTcF value greater than 480 ms [3, 6]: No patient
- patients with change from baseline in QTcF interval greater than 30 ms [3, 6]: No patient
- maximum 95 % upper confidence bound for mean ∆∆QTcF [3, 7]: 6.1 ms
- maximum mean ∆∆QTcF [3, 7]: 3.6 ms
- maximum 95 % upper confidence bound for mean ∆∆QTcF [3, 8]: 8.9 ms
- maximum mean ∆∆QTcF [3, 8]: 6.4 ms
- predicted mean ∆∆QTcF at geometric mean of Cmax ([4]; 200 mg dosing): 2.45 ms
- predicted upper 95th percentile ∆∆QTcF at geometric mean of Cmax ([4]; 200 mg dosing): 3.28 ms
- predicted mean ∆∆QTcF at geometric mean of Cmax ([4]; 400 mg dosing): 4.62 ms
- predicted upper 95th percentile ∆∆QTcF at geometric mean of Cmax ([4]; 400 mg dosing): 6.19 ms
- AUC∞/dose [5, 9]: 59.9 ± 19.9^b (ng h/mL)/mg
- CL/F [5, 9]: 18.2 ± 5.09^b L/h
- Cmax/dose [5, 9]: 6.62 ± 1.89^b (ng/mL)/mg
- AUC∞/dose [5, 10]: 63.8 ± 20.9 (ng h/mL)/mg
- CL/F [5, 10]: 17.3 ± 5.27 L/h
- Cmax/dose [5, 10]: 6.51 ± 2.12 (ng/mL)/mg
- half-life ([5]; oral, similar for the 200 mg and 400 mg dose groups, read-out: terminal phase elimination half-life (t1/2) (converted)): ~5.5 h
- half-life ([5]; 200 mg single oral dose, N = 46, harmonic mean ± pseudo SD, read-out: t1/2 (converted)): 5.3 ± 1.1 h
- AUC(0-inf) [5, 9]: 12000 ± 3980 ng·h/mL
- Vd/F [5, 9]: 141 ± 42.8 L
- AUC(0-t) [5, 11]: 11100 ± 3120 ng·h/mL
- Cmax [5, 11]: 1320 ± 378 ng/mL
- Tmax [5, 11]: 2.4 ± 0.7 h
- half-life ([5]; 400 mg single oral dose, N = 46, harmonic mean ± pseudo SD, read-out: t1/2 (converted)): 5.4 ± 1.3 h
- AUC(0-inf) [5, 10]: 25500 ± 8370 ng·h/mL
- AUC(0-t) [5, 10]: 23800 ± 7100 ng·h/mL
- Cmax [5, 10]: 2610 ± 847 ng/mL
- Tmax [5, 10]: 2.5 ± 0.6 h
- Vd/F [5, 10]: 138 ± 48.4 L
- mean time to Cmax (Tmax) ([5]; similar for the 200 mg and 400 mg dose groups): approximately 2.5 h
- systemic exposure vs dose ([5]; single oral doses 200 mg and 400 mg): increased in a dose-proportional manner
